Assay results from ChEMBL document CHEMBL1142627, “Ribofuranosyl triazolone: a natural product herbicide with activity on adenylosuccinate synthetase following phosphorylation” (J Nat Prod, 2000).
Active and inactive are the calls of the source. The rule behind the calls is not given here.

How the values were obtained:
Abutilon theophrasti [1] = test: Phytotoxicity against Abutilon theophrasti assessed as visual injury at 1.0 kg/ha growth rate treated post-emergence by greenhouse test; assay type: functional
Abutilon theophrasti [2] = test: Phytotoxicity against Abutilon theophrasti assessed as visual injury at 0.5 kg/ha growth rate treated post-emergence by greenhouse test; assay type: functional
Abutilon theophrasti [3] = test: Phytotoxicity against Abutilon theophrasti assessed as visual injury at 4.0 kg/ha growth rate treated pre-emergence by greenhouse test; assay type: functional
Abutilon theophrasti [4] = test: Phytotoxicity against Abutilon theophrasti assessed as visual injury at 2.0 kg/ha growth rate treated pre-emergence by greenhouse test; assay type: functional
Abutilon theophrasti [5] = test: Phytotoxicity against Abutilon theophrasti assessed as visual injury at 1.0 kg/ha growth rate treated pre-emergence by greenhouse test; assay type: functional
Abutilon theophrasti [6] = test: Phytotoxicity against Abutilon theophrasti assessed as visual injury at 0.5 kg/ha growth rate treated pre-emergence by greenhouse test; assay type: functional
Amaranthus retroflexus [7] = test: Phytotoxicity against Amaranthus retroflexus assessed as visual injury at 4.0 kg/ha growth rate treated post-emergence by greenhouse test; assay type: functional
Amaranthus retroflexus [8] = test: Phytotoxicity against Amaranthus retroflexus assessed as visual injury at 2.0 kg/ha growth rate treated post-emergence by greenhouse test; assay type: functional
Amaranthus retroflexus [9] = test: Phytotoxicity against Amaranthus retroflexus assessed as visual injury at 1.0 kg/ha growth rate treated post-emergence by greenhouse test; assay type: functional
Amaranthus retroflexus [10] = test: Phytotoxicity against Amaranthus retroflexus assessed as visual injury at 0.5 kg/ha growth rate treated post-emergence by greenhouse test; assay type: functional
Amaranthus retroflexus [11] = test: Phytotoxicity against Amaranthus retroflexus assessed as visual injury at 4.0 kg/ha growth rate treated pre-emergence by greenhouse test; assay type: functional
Amaranthus retroflexus [12] = test: Phytotoxicity against Amaranthus retroflexus assessed as visual injury at 2.0 kg/ha growth rate treated pre-emergence by greenhouse test; assay type: functional
Amaranthus retroflexus [13] = test: Phytotoxicity against Amaranthus retroflexus assessed as visual injury at 1.0 kg/ha growth rate treated pre-emergence by greenhouse test; assay type: functional
Amaranthus retroflexus [14] = test: Phytotoxicity against Amaranthus retroflexus assessed as visual injury at 0.5 kg/ha growth rate treated pre-emergence by greenhouse test; assay type: functional
Setaria faberi [15] = test: Phytotoxicity against Setaria faberi assessed as visual injury at 4.0 kg/ha growth rate treated post-emergence by greenhouse test; assay type: functional
Setaria faberi [16] = test: Phytotoxicity against Setaria faberi assessed as visual injury at 2.0 kg/ha growth rate treated post-emergence by greenhouse test; assay type: functional
Setaria faberi [17] = test: Phytotoxicity against Setaria faberi assessed as visual injury at 1.0 kg/ha growth rate treated post-emergence by greenhouse test; assay type: functional
Setaria faberi [18] = test: Phytotoxicity against Setaria faberi assessed as visual injury at 0.5 kg/ha growth rate treated post-emergence by greenhouse test; assay type: functional
Setaria faberi [19] = test: Phytotoxicity against Setaria faberi assessed as visual injury at 4.0 kg/ha growth rate treated pre-emergence by greenhouse test; assay type: functional
Setaria faberi [20] = test: Phytotoxicity against Setaria faberi assessed as visual injury at 2.0 kg/ha growth rate treated pre-emergence by greenhouse test; assay type: functional
Setaria faberi [21] = test: Phytotoxicity against Setaria faberi assessed as visual injury at 1.0 kg/ha growth rate treated pre-emergence by greenhouse test; assay type: functional
Setaria faberi [22] = test: Phytotoxicity against Setaria faberi assessed as visual injury at 0.5 kg/ha growth rate treated pre-emergence by greenhouse test; assay type: functional
Arabidopsis thaliana [23] = test: Metabolite reversal in Arabidopsis thaliana assessed as root growth inhibition in presence of adenine and guanine; assay type: functional, organism-based
Arabidopsis thaliana [24] = test: Metabolite reversal in Arabidopsis thaliana assessed as root growth inhibition in presence of adenine; assay type: functional, organism-based
Arabidopsis thaliana [25] = test: Metabolite reversal in Arabidopsis thaliana assessed as root growth inhibition in presence of guanine; assay type: functional, organism-based
Oryctolagus cuniculus = organism: Oryctolagus cuniculus; test: (§1) Inhibition of rabbit muscle Adenylosuccinate synthase assessed as adenylosuccinate formation
BMS = test: (§2) Inhibition of Zea mays BMS cells Adenylosuccinate synthase assessed as adenylosuccinate formation; assay type: cell-based
Alopecurus myosuroides [26] = test: Phytotoxicity against Alopecurus myosuroides assessed as visual injury at 4.0 kg/ha growth rate treated post-emergence by greenhouse test; assay type: functional
Alopecurus myosuroides [27] = test: Phytotoxicity against Alopecurus myosuroides assessed as visual injury at 2.0 kg/ha growth rate treated post-emergence by greenhouse test; assay type: functional
Alopecurus myosuroides [28] = test: Phytotoxicity against Alopecurus myosuroides assessed as visual injury at 1.0 kg/ha growth rate treated post-emergence by greenhouse test; assay type: functional
Alopecurus myosuroides [29] = test: Phytotoxicity against Alopecurus myosuroides assessed as visual injury at 0.5 kg/ha growth rate treated post-emergence by greenhouse test; assay type: functional
Alopecurus myosuroides [30] = test: Phytotoxicity against Alopecurus myosuroides assessed as visual injury at 4.0 kg/ha growth rate treated pre-emergence by greenhouse test; assay type: functional
Alopecurus myosuroides [31] = test: Phytotoxicity against Alopecurus myosuroides assessed as visual injury at 2.0 kg/ha growth rate treated pre-emergence by greenhouse test; assay type: functional
Alopecurus myosuroides [32] = test: Phytotoxicity against Alopecurus myosuroides assessed as visual injury at 1.0 kg/ha growth rate treated pre-emergence by greenhouse test; assay type: functional
Alopecurus myosuroides [33] = test: Phytotoxicity against Alopecurus myosuroides assessed as visual injury at 0.5 kg/ha growth rate treated pre-emergence by greenhouse test; assay type: functional
Arabidopsis thaliana [34] = test: Inhibition of Arabidopsis thaliana root growth; assay type: functional, organism-based
Helianthus annuus [35] = test: Phytotoxicity against Helianthus annuus assessed as visual injury at 4.0 kg/ha growth rate treated post-emergence by greenhouse test; assay type: functional
Helianthus annuus [36] = test: Phytotoxicity against Helianthus annuus assessed as visual injury at 2.0 kg/ha growth rate treated post-emergence by greenhouse test; assay type: functional
Helianthus annuus [37] = test: Phytotoxicity against Helianthus annuus assessed as visual injury at 1.0 kg/ha growth rate treated post-emergence by greenhouse test; assay type: functional
Helianthus annuus [38] = test: Phytotoxicity against Helianthus annuus assessed as visual injury at 0.5 kg/ha growth rate treated post-emergence by greenhouse test; assay type: functional
Helianthus annuus [39] = test: Phytotoxicity against Helianthus annuus assessed as visual injury at 4.0 kg/ha growth rate treated pre-emergence by greenhouse test; assay type: functional
Helianthus annuus [40] = test: Phytotoxicity against Helianthus annuus assessed as visual injury at 2.0 kg/ha growth rate treated pre-emergence by greenhouse test; assay type: functional
Helianthus annuus [41] = test: Phytotoxicity against Helianthus annuus assessed as visual injury at 1.0 kg/ha growth rate treated pre-emergence by greenhouse test; assay type: functional
Helianthus annuus [42] = test: Phytotoxicity against Helianthus annuus assessed as visual injury at 0.5 kg/ha growth rate treated pre-emergence by greenhouse test; assay type: functional
Echinochloa crus-galli [43] = test: Phytotoxicity against Echinochloa crusgalli assessed as visual injury at 4.0 kg/ha growth rate treated post-emergence by greenhouse test; assay type: functional
Echinochloa crus-galli [44] = test: Phytotoxicity against Echinochloa crusgalli assessed as visual injury at 2.0 kg/ha growth rate treated post-emergence by greenhouse test; assay type: functional
Echinochloa crus-galli [45] = test: Phytotoxicity against Echinochloa crusgalli assessed as visual injury at 1.0 kg/ha growth rate treated post-emergence by greenhouse test; assay type: functional
Echinochloa crus-galli [46] = test: Phytotoxicity against Echinochloa crusgalli assessed as visual injury at 0.5 kg/ha growth rate treated post-emergence by greenhouse test; assay type: functional
Echinochloa crus-galli [47] = test: Phytotoxicity against Echinochloa crusgalli assessed as visual injury at 4.0 kg/ha growth rate treated pre-emergence by greenhouse test; assay type: functional
Echinochloa crus-galli [48] = test: Phytotoxicity against Echinochloa crusgalli assessed as visual injury at 2.0 kg/ha growth rate treated pre-emergence by greenhouse test; assay type: functional
Echinochloa crus-galli [49] = test: Phytotoxicity against Echinochloa crusgalli assessed as visual injury at 1.0 kg/ha growth rate treated pre-emergence by greenhouse test; assay type: functional
Echinochloa crus-galli [50] = test: Phytotoxicity against Echinochloa crusgalli assessed as visual injury at 0.5 kg/ha growth rate treated pre-emergence by greenhouse test; assay type: functional
Ipomoea hederacea [51] = test: Phytotoxicity against Ipomoea hederacea assessed as visual injury at 4.0 kg/ha growth rate treated post-emergence by greenhouse test; assay type: functional
Ipomoea hederacea [52] = test: Phytotoxicity against Ipomoea hederacea assessed as visual injury at 2.0 kg/ha growth rate treated post-emergence by greenhouse test; assay type: functional
Ipomoea hederacea [53] = test: Phytotoxicity against Ipomoea hederacea assessed as visual injury at 1.0 kg/ha growth rate treated post-emergence by greenhouse test; assay type: functional
Ipomoea hederacea [54] = test: Phytotoxicity against Ipomoea hederacea assessed as visual injury at 0.5 kg/ha growth rate treated post-emergence by greenhouse test; assay type: functional
Ipomoea hederacea [55] = test: Phytotoxicity against Ipomoea hederacea assessed as visual injury at 4.0 kg/ha growth rate treated pre-emergence by greenhouse test; assay type: functional
Ipomoea hederacea [56] = test: Phytotoxicity against Ipomoea hederacea assessed as visual injury at 2.0 kg/ha growth rate treated pre-emergence by greenhouse test; assay type: functional
Ipomoea hederacea [57] = test: Phytotoxicity against Ipomoea hederacea assessed as visual injury at 1.0 kg/ha growth rate treated pre-emergence by greenhouse test; assay type: functional
Ipomoea hederacea [58] = test: Phytotoxicity against Ipomoea hederacea assessed as visual injury at 0.5 kg/ha growth rate treated pre-emergence by greenhouse test; assay type: functional
Avena fatua [59] = test: Phytotoxicity against Avena fatua assessed as visual injury at 4.0 kg/ha growth rate treated post-emergence by greenhouse test; assay type: functional
Avena fatua [60] = test: Phytotoxicity against Avena fatua assessed as visual injury at 2.0 kg/ha growth rate treated post-emergence by greenhouse test; assay type: functional
Avena fatua [61] = test: Phytotoxicity against Avena fatua assessed as visual injury at 1.0 kg/ha growth rate treated post-emergence by greenhouse test; assay type: functional
Avena fatua [62] = test: Phytotoxicity against Avena fatua assessed as visual injury at 0.5 kg/ha growth rate treated post-emergence by greenhouse test; assay type: functional
Avena fatua [63] = test: Phytotoxicity against Avena fatua assessed as visual injury at 4.0 kg/ha growth rate treated pre-emergence by greenhouse test; assay type: functional
Avena fatua [64] = test: Phytotoxicity against Avena fatua assessed as visual injury at 2.0 kg/ha growth rate treated pre-emergence by greenhouse test; assay type: functional
Avena fatua [65] = test: Phytotoxicity against Avena fatua assessed as visual injury at 1.0 kg/ha growth rate treated pre-emergence by greenhouse test; assay type: functional
Avena fatua [66] = test: Phytotoxicity against Avena fatua assessed as visual injury at 0.5 kg/ha growth rate treated pre-emergence by greenhouse test; assay type: functional
Abutilon theophrasti [67] = test: Phytotoxicity against Abutilon theophrasti assessed as visual injury at 4.0 kg/ha growth rate treated post-emergence by greenhouse test; assay type: functional
Abutilon theophrasti [68] = test: Phytotoxicity against Abutilon theophrasti assessed as visual injury at 2.0 kg/ha growth rate treated post-emergence by greenhouse test; assay type: functional
[69] = as §1; design: species or system Oryctolagus cuniculus; conditions: read-out: I50
[70] = as §2; assay type: cell-based; conditions: read-out: I50
[71] = Arabidopsis thaliana, read-out: I50

O=c1[nH]ncn1[C@@H]1O[C@H](CO)[C@@H](O)[C@H]1O
Activity (Abutilon theophrasti [1]): 70%
Activity (Abutilon theophrasti [2]): 85%
Activity (Abutilon theophrasti [3]): 65%
Activity (Abutilon theophrasti [4]): 30%
Activity (Abutilon theophrasti [5]): 30%
Activity (Abutilon theophrasti [6]): 15%
Activity (Amaranthus retroflexus [7]): 70%
Activity (Amaranthus retroflexus [8]): 50%
Activity (Amaranthus retroflexus [9]): 50%
Activity (Amaranthus retroflexus [10]): 0%
Activity (Amaranthus retroflexus [11]): 0%
Activity (Amaranthus retroflexus [12]): 0%
Activity (Amaranthus retroflexus [13]): 0%
Activity (Amaranthus retroflexus [14]): 0%
Activity (Setaria faberi [15]): 85%
Activity (Setaria faberi [16]): 60%
Activity (Setaria faberi [17]): 70%
Activity (Setaria faberi [18]): 50%
Activity (Setaria faberi [19]): 0%
Activity (Setaria faberi [20]): 0%
Activity (Setaria faberi [21]): 0%
Activity (Setaria faberi [22]): 0%
I50 (Arabidopsis thaliana [23]): 2.5 ppm
IC50 (Arabidopsis thaliana [23]; [71]): 11500 nM
I50 (Arabidopsis thaliana [24]): 1.8 ppm
IC50 (Arabidopsis thaliana [24]; [71]): 8300 nM
Activity (Arabidopsis thaliana [25]): inactive
Activity (Oryctolagus cuniculus): inactive
Activity (BMS): inactive
Activity (Alopecurus myosuroides [26]): 80%
Activity (Alopecurus myosuroides [27]): 70%
Activity (Alopecurus myosuroides [28]): 70%
Activity (Alopecurus myosuroides [29]): 40%
Activity (Alopecurus myosuroides [30]): 40%
Activity (Alopecurus myosuroides [31]): 35%
Activity (Alopecurus myosuroides [32]): 30%
Activity (Alopecurus myosuroides [33]): 0%
I50 (Arabidopsis thaliana [34]): 0.04 ppm
IC50 (Arabidopsis thaliana [34]; [71]): 200 nM
Activity (Helianthus annuus [35]): 95%
Activity (Helianthus annuus [36]): 95%
Activity (Helianthus annuus [37]): 100%
Activity (Helianthus annuus [38]): 90%
Activity (Helianthus annuus [39]): 60%
Activity (Helianthus annuus [40]): 20%
Activity (Helianthus annuus [41]): 10%
Activity (Helianthus annuus [42]): 0%
Activity (Echinochloa crus-galli [43]): 90%
Activity (Echinochloa crus-galli [44]): 85%
Activity (Echinochloa crus-galli [45]): 85%
Activity (Echinochloa crus-galli [46]): 70%
Activity (Echinochloa crus-galli [47]): 0%
Activity (Echinochloa crus-galli [48]): 0%
Activity (Echinochloa crus-galli [49]): 0%
Activity (Echinochloa crus-galli [50]): 0%
Activity (Ipomoea hederacea [51]): 90%
Activity (Ipomoea hederacea [52]): 80%
Activity (Ipomoea hederacea [53]): 80%
Activity (Ipomoea hederacea [54]): 75%
Activity (Ipomoea hederacea [55]): 40%
Activity (Ipomoea hederacea [56]): 40%
Activity (Ipomoea hederacea [57]): 25%
Activity (Ipomoea hederacea [58]): 15%
Activity (Avena fatua [59]): 60%
Activity (Avena fatua [60]): 70%
Activity (Avena fatua [61]): 60%
Activity (Avena fatua [62]): 50%
Activity (Avena fatua [63]): 0%
Activity (Avena fatua [64]): 0%
Activity (Avena fatua [65]): 0%
Activity (Avena fatua [66]): 0%
Activity (Abutilon theophrasti [67]): 80%
Activity (Abutilon theophrasti [68]): 80%

O=C1NC(=O)[C@@]2(N1)O[C@H](COP(=O)(O)O)[C@@H](O)[C@H]2O
Activity (Oryctolagus cuniculus; TDE = time-dependent effect): tde
Activity (BMS; TDE = time-dependent effect): tde

O=c1[nH]ncn1[C@@H]1O[C@H](COP(=O)(O)O)[C@@H](O)[C@H]1O [PHOSPHORIBOFURANOSYL TRIAZOLONE]
IC50 [69]: 180 nM
Activity (Oryctolagus cuniculus; TDE = time-dependent effect): tde
IC50 [70]: 980 nM
